Experimental data: PMC4491177, “Co-translational capturing of nascent ribosomal proteins by their dedicated chaperones” (Nature Communications, 2015)
Ends that are not written are not given here.

Columns and labels:
[1] = tested on: yeast strain YDK11-5A; assay: growth assay, yEGFP fusion expression and chaperone overexpression; type: cell-based, S. cerevisiae; conditions: chaperones from GAL1-10 promoter, SGal-Leu-Trp plates, 30 °C
Excerpt: Supplementary Figure 3 The N-terminal residues of Rpl10 and Rpl3 are sufficient and required for the interaction with Sqt1 and Rrb1, respectively. (a) The negative growth effect associated with L10-N- and L3-N-yEGFP expression is suppressed by overexpression of Sqt1 and Rrb1, respectively. The wild-type strain YDK11-5A was co-transformed with plasmids expressing yEGFP, Rpl10(1-20)-yEGFP or Rpl3(1-23)-yEGFP from the cognate RPL10 or RPL3 promoter, respectively, and empty vector or plasmids expressing Sqt1 or Rrb1 from the inducible GAL1-10 promoter. Transformants were first selected and then restreaked on SGal-Leu-Trp plates. Cells were spotted in 10-fold serial dilution steps onto SC-Leu-Trp (Glucose, Glu) and SGal-Leu-Trp (Galactose, Gal) plates, which were incubated for 3 d or 4 d at 30 °C, respectively. (b) The N-terminal residues of Rpl10 and Rpl3 are sufficient to mediate interaction with their chaperones in vivo. Tandem-affinity purification of C-terminally TAP-tagged Sqt1 (Sqt1-TAP, lanes 1 and 2) and N-terminally TAP-tagged Rrb1 (NTAP-Rrb1, […]
(1 picture or pasted object on this page, not shown here)

[2] = tested on: Sqt1-TAP; assay: co-translational capturing of yEGFP fusion by qRT-PCR, Sqt1-TAP purification; type: binding, S. cerevisiae; conditions: vs yEGFP control mRNA; expressed 10 min from copper-inducible promoter, then cycloheximide
Description: Figure 7 Chaperones are recruited to nascent ribosomal proteins. (a) The chaperone proteins were affinity purified (IgG-Sepharose pull-down) from extracts of cycloheximide-treated cells and the associated RNA was isolated from the TEV eluates. Each of the four chaperone purifications (NTAP-Rrb1, Syo1-FTpA, Sqt1-TAP, and Yar1-TAP) was assessed for their content of the four ribosomal protein (RP) mRNAs (RPL3, RPL5, RPL10 and RPS3) by real-time qRT–PCR. The data from one representative experiment are expressed as the relative enrichment of the specifically co-purified RP mRNA in each of the four chaperone purifications (see Methods section for details). For each cDNA, real-time qPCRs were performed in triplicates. A highly reproducible data set was obtained in an independent series of chaperone purifications. (b) The N-terminal residues of Rpl10 are sufficient to target Sqt1 to the nascent Rpl10(1–20)-yEGFP fusion protein. […] The Sqt1-TAP purifications were assessed for their content of the RPL3, RPL10 and yEGFP (GFP) mRNAs by real-time qRT–PCR. The data from one representative experiment are expressed as the fold enrichment relative to the RPL3 mRNA. […]

[3] = tested on: Sqt1-TAP; assay: in vivo co-purification (TAP) with Sqt1-TAP; type: binding, S. cerevisiae; conditions: CUP1 promoter, 30 min with 500 µM copper sulfate
Description: (§1) Cells expressing Sqt1-TAP and NTAP-Rrb1 were grown at 30 °C in 4 l yeast extract peptone dextrose (YPD) medium to an optical density (OD600) of 2. Cell extracts were obtained by glass bead lysis with a Pulverisette (Fritsch). TAPs were performed in a buffer containing 50 mM Tris-HCl (pH 7.5), 100 mM NaCl, 1.5 mM MgCl2, 5% glycerol and 0.1% NP-40 as described. The EGTA eluates were precipitated by the addition of TCA to a final concentration of 10% and, after an acetone wash, dissolved in 80 μl of 3 × SDS sample buffer. […]
(§2) lanes 3 and 4) from cells where expression of the yEGFP control protein (lanes 1 and 3) or the Rpl10(1-20)-yEGFP (lane 2) and Rpl3(1-23)-yEGFP (lane 4) fusion proteins has been induced from the CUP1 promoter for 30 min with 500 µM copper sulfate. Final EGTA eluates were analyzed by SDS-PAGE and Coomassie staining (top) or by Western blotting using anti-CBP, anti-Flag, anti-GFP, anti-Rpl10, and anti-Rpl3 antibodies (bottom). Total cell extracts (input) were analyzed by Western blotting using anti-proteinA, anti-GFP, and anti-Adh1 (loading control) antibodies. […]
(§3) Final EGTA eluates were analyzed by SDS-PAGE and Coomassie staining (top) or by Western blotting using anti-CBP, anti-Flag, anti-HA, anti-Rpl10, and anti-Rpl3 antibodies (bottom). […] Total cell extracts (input) were analyzed by Western blotting using anti-proteinA, anti-HA, and anti-Adh1 (loading control) antibodies. […]

[4] = tested on: NTAP-Rrb1; assay: co-translational capturing of yEGFP fusion by qRT-PCR, NTAP-Rrb1 purification; type: binding, S. cerevisiae; conditions: vs yEGFP control mRNA; expressed 10 min from copper-inducible promoter, then cycloheximide
Description: Cells expressing Sqt1-TAP, NTAP-Rrb1, Syo1-FTpA and Yar1-TAP were grown at 30 °C in 400 ml YPD medium to an optical density (OD600) of 0.8, then cycloheximide was added to a final concentration of 0.2 mg ml^−1 and the flasks were kept, with intermittent vigorous shaking, on ice for 5 min. Cells were harvested by centrifugation for 5 min at 4 °C at 4,000 r.p.m., washed once with 20 ml of ice-cold lysis buffer (100 mM NaCl, 50 mM Tris-HCl (pH 7.5), 1.5 mM MgCl2, 0.1% NP-40 and 5% glycerol) containing 1 mM PMSF and 0.2 mg ml^−1 cycloheximide (lysis buffer-PC) and resuspended in 2 ml of lysis buffer-PC. Equal volumes of the resuspended cells were transferred into two 2.2 ml Eppendorf tubes, briefly centrifuged and resuspended in 600 μl of ice-cold lysis buffer-PC. To prevent RNA degradation, 4 μl of RiboLock (40 U μl^−1; Fermentas) was added. Then glass beads, corresponding to 1/3 of the lysis buffer volume, were added and the tubes were vigorously vortexed for 10 × 30 s with 30-s intervals on ice. Cell extracts were transferred to a new tube and, to maximize the yield, 400 μl of ice-cold lysis buffer-PC was used to rinse the glass beads. […]
For RNA isolation from the TEV eluate aliquot (∼450 μl), the TEV eluate was adjusted to 10 mM EDTA (pH 8.0) and 0.5% SDS. […] RNA concentrations (A260) were determined using a NanoDrop 1000 spectrophotometer (Thermo Scientific). […]

[5] = tested on: NTAP-Rrb1; assay: in vivo co-purification (TAP) with NTAP-Rrb1; type: binding, S. cerevisiae; conditions: CUP1 promoter, 30 min with 500 µM copper sulfate
Description: as §1, §2, §3

[6] = tested on: Rpl3; assay: tandem-affinity purification of NTAP-Rrb1; type: binding, S. cerevisiae; conditions: TAP from yeast cell lysate, EGTA eluate, Coomassie
Description: (§4) Cells expressing Sqt1-TAP and NTAP-Rrb1 were grown at 30 °C in 4 l yeast extract peptone dextrose (YPD) medium to an optical density (OD600) of 2. Cell extracts were obtained by glass bead lysis with a Pulverisette (Fritsch). TAPs were performed in a buffer containing 50 mM Tris-HCl (pH 7.5), 100 mM NaCl, 1.5 mM MgCl2, 5% glycerol and 0.1% NP-40 as described. The EGTA eluates were precipitated by the addition of TCA to a final concentration of 10% and, after an acetone wash, dissolved in 80 μl of 3 × SDS sample buffer. Protein samples were separated on NuPAGE 4–12% Bis-Tris 12-well gels (Novex), run in 1 × MES SDS running buffer, and subsequently stained with Brilliant Blue G Colloidal Coomassie (Sigma).

[7] = tested on: Rpl10; assay: tandem-affinity purification of Sqt1-TAP; type: binding, S. cerevisiae; conditions: TAP from yeast cell lysate, EGTA eluate, Coomassie
Description: as §4

In the case of “L10-N (amino acids 1–20) yEGFP (MARRPARCYRYQKNKPYPKS; also: fused to yEGFP; UniProt P41805 1-20, looked up, fragment)”, the “growth defect associated with expression, upon overexpression of Sqt1 or Rrb1, respectively” value [1] is reported as “efficiently suppressed”, the “enrichment of fusion mRNA in Sqt1-TAP purification” value [2] is reported as “clearly enriched compared with the yEGFP control mRNA” and the “in vivo co-purification with the Sqt1-TAP bait” value [3] is reported as “specifically co-purified in vivo”.

In the case of “L3-N (amino acids 1–23) yEGFP (MSHRKYEAPRHGHLGFLPRKRAA; also: fused to yEGFP, end not given here; UniProt P14126 1-23, looked up, fragment)”, the “growth defect associated with expression, upon overexpression of Sqt1 or Rrb1, respectively” value [1] is reported as “efficiently suppressed”, the “enrichment of fusion mRNA in NTAP-Rrb1 purification” value [4] is reported as “clearly enriched compared with the yEGFP control mRNA” and the “in vivo co-purification with the NTAP-Rrb1 bait” value [5] is reported as “specifically co-purified in vivo”.

B1: NTAP-Rrb1: N-terminally TAP-tagged Rrb1 (protein)
chain: MSKRSIEVNEEQDRVVSAKTESHSVPAIPASEEQDAPKNDLEEQLSDEFDSDGEIIEIDGDDEINDEDDLRKKQEEAETLVQKDQSEGNKEKIQELYLPHMSRPLGPDEVLEADPTVYEMLHNVNMPWPCLTLDVIPDTLGSERRNYPQSILLTTATQSSRKKENELMVLALSNLAKTLLKDDNEGEDDEEDDEDDVDPVIENENIPLRDTTNRLKVSPFAISNQEVLTATMSENGDVYIYNLAPQSKAFSTPGYQIPKSAKRPIHTVKNHGNVEGYGLDWSPLIKTGALLSGDCSGQIYFTQRHTSRWVTDKQPFTVSNNKSIEDIQWSRTESTVFATAGCDGYIRIWDTRSKKHKPAISVKASNTDVNVISWSDKIGYLLASGDDNGTWGVWDLRQFTPSNADAVQPVAQYDFHKGAITSIAFNPLDESIVAVGSEDNTVTLWDLSVEADDEEIKQQAAETKELQEIPPQLLFVHWQKEVKDVKWHKQIPGCLVSTGTDGLNVWKTISV
modifications: left off: NTAP (proteinA-TEV-CBP-Flag), N-terminal, kept
In the case of B1, the “co-purification of Rpl3” value [6] is reported as “robust co-purification of Rpl3”.

B2: Sqt1-TAP: C-terminally TAP-tagged Sqt1 (protein)
chain: MEPQEEFITTEEVEQEIVPTVEVEQDVPVDIEGENDDDDEMMNDDEEALEVDMSNNSLTYFDKHTDSVFAIGHHPNLPLVCTGGGDNLAHLWTSHSQPPKFAGTLTGYGESVISCSFTSEGGFLVTADMSGKVLVHMGQKGGAQWKLASQMQEVEEIVWLKTHPTIARTFAFGATDGSVWCYQINEQDGSLEQLMSGFVHQQDCSMGEFINTDKGENTLELVTCSLDSTIVAWNCFTGQQLFKITQAEIKGLEAPWISLSLAPETLTKGNSGVVACGSNNGLLAVINCNNGGAILHLSTVIELKPEQDELDASIESISWSSKFSLMAIGLVCGEILLYDTSAWRVRHKFVLEDSVTKLMFDNDDLFASCINGKVYQFNARTGQEKFVCVGHNMGVLDFILLHPVANTGTEQKRKVITAGDEGVSLVFEVPN
modifications: left off: TAP, C-terminal, kept
For B2, the “co-enrichment of Rpl10” value [7] was “good co-enrichment of Rpl10”.
